According to patent US20240401044A1, “EXPLOITING IL33 SECRETION AS A THERAPEUTIC TARGET IN CANCER” (ROSWELL PARK CANCER INSTITUTE CORPORATION HEALTH RESEARCH, …, priority 2021, published 2024):

Key:
[1] = tested on: IL33 expression; test: Western blot of IL33 expression in PDAC cell lines treated with MEK and PI3K/AKT inhibitors; format: cell-based, mouse; conditions: cell lines derived from KPC tumor model of PDAC; inhibitor treatment for 24 hrs
Protocol: Results are shown as mean ±SEM. P values were calculated using Student t test. Chi-square test and spearman's correlation analysis was done for human PDAC TMA for statistical significance.
The above in silico findings were further validated by western blot analysis showing a complete loss of IL33 expression upon abolishing Kras* signaling (FIG. 3F-G, FIG. 4A-B). We further validated this finding using cell lines derived from KPC tumor model of PDAC (FIG. 1A).
Primary mouse cell lines were established in the laboratory (PJ-B6-4291, PJ-B6-4298) or gift from Dr. Ronald DePinho (AK-B6, AK14838, AK192, HY19636, HY15559) as described previously and were routinely cultured in RPMI 1640 (Invitrogen) 10% FBS (Invitrogen), 100 U/ml penicillin and 100 U/ml streptomycin. For inducible Kras derived cell lines, 1 μg/ml of doxycycline was directly added to the media. The cell lines were mycoplasma free, based on tests done monthly in the laboratory using Lonza's MycoAlert Mycoplasma Detection Kit assays with confirmatory tests by PCR-based assays.
Medium was removed and the cells were washed twice in ice-cold phosphate-buffered saline (PBS), scraped and collected as pellets after centrifugation at 1700 g for 5 min. The pelleted cells were incubated in radio immune precipitation assay (RIPA) buffer with proteinase and phosphatase inhibitors for 15 min. Lysates were then collected and centrifuged at 12000 rpm for 15 min at 4° C. Protein concentrations were measured using the DC Protein Assay Kit (Biorad, Cat. No. 5000111). SDS-PAGE and immunoblotting were performed as described previously in pre-cast bis-Tris 4-20% gradient gels (Invitrogen). The following antibodies were used: IL33 (R & D system AF3626); pAKT-S473 (CST 9271); pERK-p44/42 (CST 4370) and […] (Sigma-Aldrich, A2228).

[2] = tested on: IL33; test: IHC and IF of IL33 in fungal-depleted PDAC tumors; format: in vivo, mouse; conditions: fungal-depleted tumors after amphotericin B course (FIG. 9H)
Protocol: To further test the role of fungi in IL33 secretion and recruitment of ILC2 and TH2 cells in the PDAC TME, we evaluated the effect of Alternaria and Malassezia administered by gavage to PDAC tumor-bearing mice (FIG. 9G). First, fungi resident in the mice were depleted by a course of amphotericin B (i.e., 5 doses of amphotericin B, 200 μg/day by oral gavage), followed by a maintenance dose of 0.5 μg/ml in the drinking water for […]. Following depletion of fungi, we administered either Malassezia globosa or Alternaria alternata (10^8 fungal spores per mouse) by oral gavage into the tumor-bearing mice. At 28 days post-fungal treatment, the tumors were harvested for analyses. […] Intratumoral fungal depletion and repopulation were confirmed by fungal FISH analysis (FIG. 9H). Further, 18S rRNA sequencing confirmed increased presence of Alternaria and Malassezia sp. in the tumor and stool of the mouse receiving fungal transplantation (FIG. 9I, FIG. 10D-F). […] Similarly, Malassezia globosa or Alternaria alternata administration augmented the infiltration of ILC2 (FIG. 9K) and TH2 (FIG. 10G) cell populations within the TME. […]
Harvested tissues were immediately fixed in 10% formalin overnight and embedded in paraffin. […] Immunofluorescence slides were imaged with an Leica confocal Microscope and quantified with ImageJ. […]

[3] = tested on: ILC2 and TH2 cells in PDAC tumors; test: Flow cytometry of tumor infiltrating type 2 immune cells after antifungal treatment; format: in vivo, C57BL/6 mice; conditions: oral amphotericin B
Protocol: (§1) Followed by 3 weeks of amphotericin (0.5ug/ml) treatment in drinking water. After 3 weeks, PDAC cells were orthotopically transplanted and tumor progression studies were performed after 28-35 days. […] Red circles define the tumor boundaries. […] Followed by 3 weeks of amphotericin (0.5ug/ml) treatment in drinking water. After 3 weeks fungus (Alternaria alternata and Malassazia globose, 10^8 CFU/ml) was transplanted in mice. After 7 days of fungus transplantation, PDAC cells were orthotopically transplanted and tumor progression studies were performed after 28-35 days. […] Also, shown are the 18S rRNA sequencing in stool samples. Positive control-Alternaria is a sample of pure Alternaria culture. […] Scale bar 100 μm, unless indicated otherwise. Data are combined from three independent experiments and are presented as mean ±SEM, P values were calculated using Student t-test. ns, no significance.
For gastrointestinal fungal depletion, C57BL/6 mice were treated with 200 μg amphotericin B per day by oral gavage for five consecutive days, followed by 0.5 μg/ml amphotericin B treatment in drinking water for 21 days. Control groups were gavaged with 200 μl PBS for 5 consecutive days. After completion of antifungal treatment, species specific fungal repopulation was done with Alternaria alternata (ATCC 36376) and Malassezia globosa (MYA-4889). Fungi were administered (1×10^8 CFU/ml) by oral gavage. […]

[4] = tested on: orthotopically transplanted PDAC tumors; test: Antifungal (fungal depletion) treatment of mice with orthotopically transplanted PDAC tumors: tumor burden and survival; format: in vivo, C57BL/6 mice
Protocol: as §1
For all experiments, C57BL/6J (Stock 000664) mice, aged 4-6 weeks were obtained from Jackson Laboratory unless otherwise mentioned. For orthotopic pancreas transplantation, mice were anaesthetized using isoflurane. A 2×2-mm portion of the left abdomen was shaved to facilitate transplantation. An incision was made in the left abdomen and the pancreas was gently exposed along with the spleen. Luciferase-expressing cells were slowly injected into the tail of the pancreas using a Hamilton syringe. Twenty microliters of cells (5×10^5) mixed with 20 μl Matrigel were injected. […]
Live in vivo imaging was performed at the Animal Imaging Facility at Roswell Park Comprehensive Cancer Center. […] Temperature and respiration were regulated using an MR-compatible small animal monitoring system (Model 1250, SAII, Stony Brook, NY.) Following scout scans, tumor burden was determined using multislice, fast spin echo scans in the axial and coronal planes. […] Tumor volumes were calculated by manual segmentation and voxel summation using commercially available, medical image processing software (Analyze 10.0, AnalyzeDirect, Overland Park, KS). […]

## Nc1cc(C(F)(F)F)c(-c2cc(N3CCOCC3)nc(N3CCOCC3)n2)cn1 [Buparlisib]
[1]
  IL33 expression (western blot): did not lead to a reduction in IL33 expression

## O=C(NOCC1CC1)c1ccc(F)c(F)c1Nc1ccc(I)cc1Cl [CI-1040]
[1]
  IL33 expression (western blot): complete inhibition of IL33 expression

## CCn1c(-c2nonc2N)nc2c(C#CC(C)(C)O)ncc(OCC3CCCNC3)c21 (stereo not drawn) [GSK-690696]
[1]
  IL33 expression (western blot): did not lead to a reduction in IL33 expression

## C[C@@H]1[C@H](O)[C@@H](C)/C=C/C=C/C=C/C=C/C=C/C=C/C=C/[C@H](O[C@@H]2O[C@H](C)[C@@H](O)[C@H](N)[C@@H]2O)C[C@@H]2O[C@](O)(C[C@@H](O)C[C@@H](O)[C@H](O)CC[C@@H](O)C[C@@H](O)CC(=O)O[C@H]1C)C[C@H](O)[C@H]2C(=O)O [amphotericin B]
[2]
  IL33 localisation in PDAC tumors (IHC and IF): IL33 signal restricted predominantly to the nucleus of cancer cells
[3]; relative to total CD45 positive cells (FIG. 9E)
  tumor infiltrating ILC2: reduced tumor infiltrating ILC2
[3]; relative to total CD45 positive cells (FIG. 9F)
  tumor infiltrating TH2 cells: reduced
[4]; fungal depletion/repopulation experiment, 5 doses 200 μg/day by oral gavage, then 0.5 μg/ml in drinking water (FIG. 9J)
  tumor burden (wet weight of PDAC tumors): significantly decreased tumor burden
[4]; oral amphotericin B, orthotopic PDAC tumor-bearing mice (FIG. 9B-C, 10A)
  tumor burden: decreased tumor burden
[4]; oral amphotericin B, orthotopic PDAC tumor-bearing mice (FIG. 9D)
  survival: increased survival
